{"source": "patent US12071673B2", "about": "“Methods of diagnosis, selection, and treatment of diseases and conditions caused by or associated with methanogens” (Cedars-Sinai Medical Center, priority 2013, dated 2024)", "origin": "cited, not measured here", "key": {"[1]": {"system": "methanogens", "details": "retrospective study, 10 days; for reduction in methane: breath methane"}}}
{"compound": "C", "note": "[methane]", "values": [{"measurement": "reduction of proximal small bowel motility (average)", "setting": "5 dogs, methane infused through mid-small bowel fistula", "value": 59, "unit": "%"}, {"measurement": "slowing of small intestinal transit", "setting": "in vivo animal study, methane infused into the small intestine", "value": 59, "unit": "%"}]}
{"compound": "CO[C@H]1/C=C/O[C@@]2(C)Oc3c(C)c(O)c4c(O)c(c5c(nc6cc(C)ccn65)c4c3C2=O)NC(=O)/C(C)=C\\C=C\\[C@H](C)[C@H](O)[C@@H](C)[C@@H](O)[C@@H](C)[C@H](OC(C)=O)[C@@H]1C", "note": "[rifaximin]", "values": [{"measurement": "reduction in constipation symptoms", "setting": "[1]", "value": 56, "unit": "%"}, {"measurement": "reduction in methane", "setting": "[1]", "value": 28, "unit": "%"}]}
{"compound": "neomycin", "values": [{"measurement": "reduction in constipation symptoms", "setting": "[1]", "value": 63, "unit": "%"}, {"measurement": "reduction in methane", "setting": "[1]", "value": 33, "unit": "%"}]}
